Read-outs that look alike come from different tables or passages of the source.
Experiments:
5-HT2A receptor [1] = target: T1, 5-HT2A receptor (Homo sapiens, UniProt P28223); assay: Functional activity, FLIPR calcium assay, CHO cells expressing human 5-HT2A; format: cell-based; parameters: expressed in transfected cells; host or cells: CHO cells; conditions: for EC50: FLIPR, CHO cells, Fluo-3-AM, read-out: h5-HT2A EC50; for h5-HT2A Rel. Eff.: maximum fluorescent signal relative to 10 μM 5-HT (defined as 100%)
T1 sequence (P28223 whole entry): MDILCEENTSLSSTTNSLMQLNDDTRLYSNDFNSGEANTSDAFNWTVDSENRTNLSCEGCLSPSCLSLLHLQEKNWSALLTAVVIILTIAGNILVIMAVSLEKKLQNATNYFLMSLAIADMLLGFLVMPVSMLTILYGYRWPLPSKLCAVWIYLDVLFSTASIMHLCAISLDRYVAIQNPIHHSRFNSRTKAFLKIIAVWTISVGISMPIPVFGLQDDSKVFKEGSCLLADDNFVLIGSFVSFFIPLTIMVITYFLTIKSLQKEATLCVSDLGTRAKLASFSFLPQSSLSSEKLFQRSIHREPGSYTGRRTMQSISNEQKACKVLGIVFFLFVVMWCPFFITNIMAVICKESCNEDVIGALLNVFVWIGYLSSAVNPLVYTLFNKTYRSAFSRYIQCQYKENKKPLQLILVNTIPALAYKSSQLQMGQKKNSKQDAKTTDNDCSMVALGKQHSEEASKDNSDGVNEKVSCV
Experimental: (§1) The functional activity of compounds of formula (I) was assayed using a Fluorimetric Imaging Plate Reader (FLIPR). CHO cells expressing the human 5-HT2C or human 5-HT2A receptors were counted and plated into standard 96 well microtitre plates on the day before testing to give a confluent monolayer. The cells were then loaded with the calcium sensitive dye, Fluo-3-AM. Unincorporated dye was removed using an automated cell washer to leave a total volume of 100 μL/well of assay buffer (Hanks balanced salt solution containing 20 mM Hepes and 2.5 mM probenecid). The drug (dissolved in 50 μL of the assay buffer) was added at a rate of 70 μL/sec to each well of the FLIPR 96 well plate during fluorescence measurements. The measurements were taken at 1 sec intervals and the maximum fluorescent signal was measured (approx 10-15 secs after drug addition) and compared with the response produced by 10 μM 5-HT (defined as 100%) to which it was expressed as a percentage response (relative efficacy). Dose response curves were constructed using Graphpad Prism (Graph Software Inc.).

5-HT2C receptor [2] = target: T2, 5-HT2C receptor (Homo sapiens, UniProt P28335); assay: Functional activity, FLIPR calcium assay, CHO cells expressing human 5-HT2C; format: cell-based; parameters: expressed in transfected cells; host or cells: CHO cells; conditions: for h5-HT2C Rel. Eff.: maximum fluorescent signal relative to 10 μM 5-HT (defined as 100%)
T2 sequence (P28335 33-458): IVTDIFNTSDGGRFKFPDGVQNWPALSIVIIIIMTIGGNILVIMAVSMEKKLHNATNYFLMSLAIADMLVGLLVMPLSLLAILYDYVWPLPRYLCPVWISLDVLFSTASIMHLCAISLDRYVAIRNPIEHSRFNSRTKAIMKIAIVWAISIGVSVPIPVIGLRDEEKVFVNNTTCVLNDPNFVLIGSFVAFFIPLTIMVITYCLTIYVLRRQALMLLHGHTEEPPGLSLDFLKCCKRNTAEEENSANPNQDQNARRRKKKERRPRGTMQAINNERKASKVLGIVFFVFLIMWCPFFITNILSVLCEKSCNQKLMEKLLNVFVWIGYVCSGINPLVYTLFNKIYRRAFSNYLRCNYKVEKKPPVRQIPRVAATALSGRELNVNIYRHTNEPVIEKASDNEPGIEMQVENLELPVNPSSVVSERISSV
Experimental: as §1

human 5-HT2B receptors = target: T3, human 5-HT2B receptors (Homo sapiens, UniProt P41595); assay: Binding to the 5-HT2B receptor, [3H]-5-HT, CHO cell line (Method (b))
T3 construct: expressed in transfected cells; host or cells: CHO cell line
T3 sequence (P41595 whole entry): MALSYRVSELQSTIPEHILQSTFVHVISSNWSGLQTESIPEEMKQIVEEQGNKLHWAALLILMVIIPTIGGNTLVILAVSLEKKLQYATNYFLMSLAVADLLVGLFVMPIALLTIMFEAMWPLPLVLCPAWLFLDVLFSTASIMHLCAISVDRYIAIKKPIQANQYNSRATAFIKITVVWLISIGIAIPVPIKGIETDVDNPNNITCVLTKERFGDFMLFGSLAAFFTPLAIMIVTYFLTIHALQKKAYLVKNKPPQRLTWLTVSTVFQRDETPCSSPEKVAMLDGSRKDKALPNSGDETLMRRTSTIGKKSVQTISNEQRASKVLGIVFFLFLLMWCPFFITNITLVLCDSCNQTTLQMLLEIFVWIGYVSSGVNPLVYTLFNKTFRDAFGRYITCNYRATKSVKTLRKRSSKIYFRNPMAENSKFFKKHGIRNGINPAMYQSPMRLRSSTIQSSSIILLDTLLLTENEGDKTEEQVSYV
Experimental: (§2) The binding of compounds of formula (I) to serotonin receptors was determined in vitro by standard methods. The preparations were investigated in accordance with the assays given hereinafter.
Method (b): For the binding to the 5-HT2B receptor the 5-HT2B receptors were radiolabeled with [^3H]-5-HT. The affinity of the compounds for human 5-HT2B receptors in a CHO cell line was determined according to the procedure of K. Schmuck, C. Ullmer, P. Engels and H. Lubbert, FEBS Lett., 1994, 342, 85-90.

5-HT2C receptor [3] = target: T2, 5-HT2C receptor; assay: Binding to the 5-HT2C receptor, [3H]-5-HT, CHO cell line (Method (a)); parameters: expressed in transfected cells; host or cells: CHO cell line
Experimental: as §2
Method (a): For the binding to the 5-HT2C receptor the 5-HT2C receptors were radiolabeled with [^3H]-5-HT. The affinity of the compounds for 5-HT2C receptors in a CHO cell line was determined according to the procedure of D. Hoyer, G. Engel and H. O. Kalkman, European J. Pharmacol., 1985, 118, 13-23.

5-HT2A receptor [4] = target: T1, 5-HT2A receptor; assay: Binding to the 5-HT2A receptor, [125I]-DOI, CHO cell line (Method (c)); parameters: expressed in transfected cells; host or cells: CHO cell line
Experimental: as §2
Method (c): For the binding to the 5-HT2A receptor the 5-HT2A receptors were radiolabeled with [^125I]-DOI. The affinity of the compounds for 5-HT2A receptors in a CHO cell line was determined according to the procedure of D. J. McKenna and S. J. Peroutka, J. Neurosci., 1989, 9, 3482-90.

[5] = FLIPR, CHO cells, Fluo-3-AM, read-out: h5-HT2C EC50
[6] = Method (b), [3H]-5-HT, human 5-HT2B, CHO cell line, read-out: Ki (2B)
[7] = Method (a), [3H]-5-HT, CHO cell line, read-out: Ki (2C)
[8] = Method (c), [125I]-DOI, CHO cell line, read-out: Ki (2A)

| Structure (SMILES) | EC50 (5-HT2A receptor [1]) | h5-HT2A Rel. Eff. (5-HT2A receptor [1]) | EC50 (5-HT2C receptor [2]) | h5-HT2C Rel. Eff. (5-HT2C receptor [2]) | Ki (human 5-HT2B receptors) | Ki (5-HT2C receptor [3]) | Ki (5-HT2A receptor [4]) | EC50 (5-HT2C receptor [2]; [5]) | Ki (human 5-HT2B receptors; [6]) | Ki (5-HT2C receptor [3]; [7]) | Ki (5-HT2A receptor [4]; [8]) |
| --- | --- | --- | --- | --- | --- | --- | --- | --- | --- | --- | --- |
| c1ccc(C[C@@H]2CNCCO2)cc1 [reference compound] | > 3000 nM | 2% | > 3000 nM | 41% | > 10 µM | 169 nM | > 10000 nM |  |  |  |  |
| FC(F)(F)c1cccc(C[C@@H]2CNCCO2)c1 [Example 14, (R)-2-(3-trifluoromethyl)benzylmorpholine] | 511 nM | 47% |  | 97% |  |  |  | 7 nM | 0.055 µM | 10 nM | 89 nM |
| COc1c(C)cc(C[C@@H]2CNCCO2)cc1Br [Example 46, (R)-2-(3-bromo-4-methoxy-5-methyl-benzyl)morpholine] | > 3000 nM | 21% |  | 94% |  |  |  | 53 nM | > 10 µM | 82 nM | 641 nM |
